Patent US11878008B2, “Composition for preventing or treating atopic dermatitis” (AMOREPACIFIC CORPORATION, priority 2017, dated 2024)
Entries after “also recorded” stand apart in the source; their conditions may differ.

Tests used:
[1] = C57BL/6, mouse, in vivo, 2 h
Experimental: As described above, AMG 517, a representative reference drug as a TRPV1 antagonist, and the compound of Formula 1 of the present invention were tested for the increase in body temperature during transdermal administration.

[2] = rats; cited from earlier work
[3] = rats, oral dose of 3 mg/kg; cited from earlier work
[4] = Change in body temperature after oral administration in mice; assay type: in vivo, Balb/c mice; conditions: for change in body temperature, dose dependence: up to 4 hours, AMG 517 0.03, 0.1, 0.3 mg/kg, compound of Formula 1 3, 10, 30 mg/kg, FIGS. 2A, 2B
Excerpt: Meanwhile, when the same drug was orally administered, a concentration-dependent increase in body temperature due to TRPV1 antagonism was observed as expected (see FIGS. 2A and 2B).

[5] = cited from earlier work
[6] = Change in body temperature in healthy volunteers after oral administration; assay type: in vivo, human; conditions: oral 5 mg or 10 mg once a day for 8 days; healthy adult volunteers; FIGS. 6A, 6B
Experimental: Ten healthy adult volunteers were divided into two groups, and the compound of Formula 1 was orally administered to the volunteers in each of the groups at a dose of 5 mg or 10 mg once a day for 8 days. Thereafter, a placebo was administered to the two volunteers in each of the groups, and the body temperatures were measured for 14 days. Then, the mean body temperature of the volunteers and a change in body temperature were determined.

[7] = Change in body temperature in healthy volunteers after percutaneous administration; assay type: in vivo, human; conditions: percutaneous application to back skin, 7 to 30 days
Excerpt: The composition of Example 1 including the compound of Formula 1 was percutaneously applied to healthy volunteers other than the patients with atopic dermatitis to check a change in body temperature.
The 24 healthy adult volunteers were divided into three groups, and the volunteers in each of the groups were then randomly allocated into a test group of 6 volunteers (Example 1) and a placebo group of 2 volunteers (Comparative Example 1). The same clinician applied the composition onto the volunteers' back skins at a dose of 5, 15, 50 mg per 5 g every morning according to a predetermined administration method. In this case, the composition was applied for 7, 15, 30 days with a size of 25×40 cm and an area of 1,000 cm^2.
A range of the body temperatures measured for the 24 volunteers in a clinical trial period was in a range of 35.4 to 37.3° C. The results of the changes in body temperatures from the baseline before the drug administration in each of the groups are as listed in the following Table 13.

| increase in body temperature [1] | change in body temperature at lowest dose ([4]; 0.03 mg/kg) | SMILES | effective concentration to maximize analgesic efficacy [2] | body temperature increase [3] | change in body temperature, dose dependence [4] | concentration dependence of hyperthermia ([5]; oral administration for treatment of dental pain/toothache) | body temperature increased to ([5]; oral, group administered a dose of 25 mg) | body temperature change, dose dependence [6] | clinically significant findings associated with changes in body temperature [7] |
| --- | --- | --- | --- | --- | --- | --- | --- | --- | --- |
| ~1.59 °C | significantly increased body temperature | CC(=O)Nc1nc2c(Oc3cc(-c4ccc(C(F)(F)F)cc4)ncn3)cccc2s1 [AMG 517] | less than 0.3 mg/kg | about 1.3 °C | increased body temperature in a dose-dependent manner | concentration-dependent side effect of hyperthermia; also recorded: increased body temperature, which was proportional to a serum AMG 517 concentration | 39.9 °C | – | – |
| ~0.84 °C | – | CCCc1nc(C(F)(F)F)ccc1/C=C/C(=O)N[C@H](C)c1cc(F)c(NS(C)(=O)=O)c(F)c1 [compound of Formula 1, (R)-N-[1-(3,5-difluoro-4-methanesulfonylamino-phenyl)-ethyl]-3-(2-propyl-6-trifluoromethyl-pyridin-3-yl)-acrylamide] | – | – | increased body temperature in a dose-dependent manner | – | – | increased the body temperature in a dose-dependent manner; also recorded: increased body temperature (hyperthermia) were caused in a concentration-dependent manner | such an increase in body temperature was not observed |
